Assay results taken from patent US20230248723A1, “PYRROLO[2,3-B]PYRAZINE COMPOUNDS AS CCCDNA INHIBITORS FOR THE TREATMENT OF HEPATITIS B VIRUS (HBV) INFECTION” (Hoffmann-La Roche Inc., priority 2017, published 2023).
Read-outs that look alike come from different tables or passages of the source.

Tests used:
[1] = test system: iPS-derived hepatocyte-like cells (HLC); assay: HBV infection of MB-1-treated HLC (HBsAg released into culture medium); assay type: cell-based, human
[2] = test system: HBeAg; assay: HBeAg, HBV-infected HepaRG; assay type: cell-based; details: Hepatitis B virus
[3] = test system: HBsAg; assay: HBsAg, multiplex assay, HBV-infected PHH; assay type: cell-based; details: Hepatitis B virus
Experimental: (§1) Fresh primary human hepatocytes (PXB-PHH) harvested from humanized mice (uPA/SCID mice)—herein called PHH—were obtained from PhoenixBio Co., Ltd (Japan). Cells were seeded on a collagen I-coated plate at the following cell density: 35,000 cells/well (384-well), 70,000 cells/well (96-well), or, 400,000 cells/well (24-well) in modified hepatocyte clonal growth medium (dHCGM). dHCGM is a DMEM medium containing 100 U/ml Penicillin, 100 μg/ml Streptomycin, 20 mM Hopes, 44 mM NaHCO3, 15 μg/ml L-proline, 0.25 μg/ml insulin, 50 nM Dexamethazone, 5 ng/ml EGF, 0.1 mM Asc-2P, 2% DMSO and 10% FBS (Ishida et al., 2015). Cells were cultured at 37° C. incubator in a humidified atmosphere with 5% CO2. Culture medium was replaced 24 h post-plating and every 2 days until harvest.
Following 4 day of maturation with 1 μM MB-1, HLC were incubated with HBV (purified from CHB individuals) at multiplicity of infection (MOI) 10-40 without PEG for 24 hr; virus inoculum was removed the following day. […] Compound treatment in HLC and PHH was started at day 3 post infection. Compound (in powder) was dissolved in DMSO; the final concentration of DMSO added to cells is 1%. Fresh compound was replenished every 2 day until cells were harvested at day 10 (PHH), or day 14 (HLC). Compound effect on HBV and cellular toxicity was measured by multiplex assay (HBsAg, HBeAg, albumin), branched DNA (pgRNA), or digital PCR (cccDNA) and depicted as % of inhibition compared to DMSO control. Graphs were prepared using Spotfire software.
A custom, Luminex-based multiplex assay that simultaneously measured HBeAg, albumin, and HBsAg was developed by Radix BioSolutions (Georgetown, Tex.). This is a sandwich immunoassay; each capture antibody was coupled with xMAP™ Luminex magnetic beads. The dynamic ranges of analyte detection are as follows: HBeAg (1-316 ng/ml), albumin (3.1-10,000 ng/ml), and HBsAg (0.1-100 ng/ml) with coefficient variant (CV) […]. Samples were read on FlexMAP 3D (Luminex) and analyzed by Genedata software.

[4] = test system: cccDNA; assay: cccDNA assay (digital PCR), HBV-infected PHH; assay type: cell-based
Experimental: as §1
Following 4 day of maturation with 1 μM MB-1, HLC were incubated with HBV (purified from CHB individuals) at multiplicity of infection (MOI) 10-40 without PEG for 24 hr; virus inoculum was removed the following day. HBV infection in PHH was performed at MOI 40+4% PEG. Compound treatment in HLC and PHH was started at day 3 post infection. Compound (in powder) was dissolved in DMSO; the final concentration of DMSO added to cells is 1%. Fresh compound was replenished every 2 day until cells were harvested at day 10 (PHH), or day 14 (HLC). Compound effect on HBV and cellular toxicity was measured by multiplex assay (HBsAg, HBeAg, albumin), branched DNA (pgRNA), or digital PCR (cccDNA) and depicted as % of inhibition compared to DMSO control. Graphs were prepared using Spotfire software.
HBV-infected cells (in 384- or 96-well plate) were lysed with Cells-to-CT Lysis Reagents according to manufacturer's instruction (Thermo Scientific). To remove excess of RC-DNA, samples were digested with T5 exonuclease (10 U) (New England Biolabs), at 37° C. for 1 hr; enzyme was inactivated by heating the samples at 80° C. for 15 min. DNA samples (1.2 μl) were added into the digital PCR Master Mix (QuantStudio Digital PCR Kit, Thermo Scientific) containing cccDNA primers 5′-[…] (forward), 5′-[…] (reverse), and […] (probe) (Werle-Lapostolle et al., 2004) in a total volume 5 μl, and loaded into dPCR array using AccuFill System (AB). Each sample was loaded into 4 subarrays/256 through-holes. Digital PCR assay was run on QuantStudio 12K Flex (AB) and data was analyzed by Digital Suite Software (AB).

Structure (SMILES): O=C(NCc1cccc(F)c1)c1cccc2[nH]c(-c3c(NC[C@@H](O)c4ccccc4)cc[nH]c3=O)nc12 [MB-1]
- peak of HBsAg ([1]; HLC treated with MB-1 1 μM for 4 days, patient-derived HBV MOI 10, day 11 pi): ~16 ng/mL
- HBsAg ([1]; HLC with MB-1, HepG2.2.15-derived HBV, MOI 10, day 1 pi): 0.05 ± 0.01 ng/mL
- HBsAg ([1]; HLC with MB-1, HepG2.2.15-derived HBV, MOI 10, day 3 pi): 0.06 ± 0.01 ng/mL
- HBsAg ([1]; HLC with MB-1, HepG2.2.15-derived HBV, MOI 10, day 8 pi): 0.08 ± 0.01 ng/mL
- HBsAg ([1]; HLC with MB-1, HepG2.2.15-derived HBV, MOI 10, day 11 pi): 0.10 ± 0.01 ng/mL
- HBsAg ([1]; HLC with MB-1, HepG2.2.15-derived HBV, MOI 10, day 14 pi): 0.09 ± 0.01 ng/mL
- HBsAg ([1]; HLC with MB-1, HepG2.2.15-derived HBV, MOI 100, day 1 pi): 414.13 ± 1.68 ng/mL
- HBsAg ([1]; HLC with MB-1, HepG2.2.15-derived HBV, MOI 100, day 3 pi): 8.12 ± 2.21 ng/mL
- HBsAg ([1]; HLC with MB-1, HepG2.2.15-derived HBV, MOI 100, day 8 pi): 0.36 ± 0.11 ng/mL
- HBsAg ([1]; HLC with MB-1, HepG2.2.15-derived HBV, MOI 100, day 11 pi): 0.73 ± 0.20 ng/mL
- HBsAg ([1]; HLC with MB-1, HepG2.2.15-derived HBV, MOI 100, day 14 pi): 0.43 ± 0.18 ng/mL
- HBsAg ([1]; HLC with MB-1, patient-derived HBV, MOI 10, day 1 pi): 0.34 ± 0.06 ng/mL
- HBsAg ([1]; HLC with MB-1, patient-derived HBV, MOI 10, day 3 pi): 0.93 ± 0.25 ng/mL
- HBsAg ([1]; HLC with MB-1, patient-derived HBV, MOI 10, day 8 pi): 5.87 ± 1.34 ng/mL
- HBsAg ([1]; HLC with MB-1, patient-derived HBV, MOI 10, day 11 pi): 14.31 ± 2.02 ng/mL
- HBsAg ([1]; HLC with MB-1, patient-derived HBV, MOI 10, day 14 pi): 10.39 ± 1.46 ng/mL

Structure (SMILES): O=C(NC(CO)CO)c1c[nH]c2ncc(C3CC3)nc12 [compound 7]
- IC50 ([2]; read-out: HBeAg IC50 (μM) Median, HepaRG, HepG2.2.15-derived HBV GT D, MOI 40): 6.11 µM
- IC50 ([2]; read-out: HBeAg IC50 (μM) Median, HepaRG, HepG2.2.15-derived HBV GT D, MOI 125): 6.55 µM
- IC50 ([2]; read-out: HBeAg IC50 (μM) Median, HepaRG, patient-derived HBV GT D, MOI 40): 0.41 µM
- IC50 ([2]; read-out: HBeAg IC50 (μM) Median, HepaRG, patient-derived HBV GT D, MOI 125): 0.52 µM
- IC50 ([3]; 240 h, read-out: HBsAg IC50 (μM) Median, PHH, patient-derived HBV GT A, MOI 40, day 10 pi): 0.33 µM
- IC50 ([3]; 240 h, read-out: HBsAg IC50 (μM) Median, PHH, patient-derived HBV GT B, MOI 40, day 10 pi): 0.34 µM
- IC50 ([3]; 240 h, read-out: HBsAg IC50 (μM) Median, PHH, patient-derived HBV GT C, MOI 40, day 10 pi): 0.3 µM
- IC50 ([3]; 240 h, read-out: HBsAg IC50 (μM) Median, PHH, patient-derived HBV GT D, MOI 40, day 10 pi (Table 5)): 0.3 µM
- IC50 ([3]; read-out: HBsAg IC50 (μM) Median, PHH, HepG2.2.15-derived HBV GT D, MOI 40): 9.98 µM
- IC50 ([3]; read-out: HBsAg IC50 (μM) Median, PHH, HepG2.2.15-derived HBV GT D, MOI 125): 8.98 µM
- IC50 ([3]; read-out: HBsAg IC50 (μM) Median, PHH, patient-derived HBV (GT D)): 0.45 µM
- IC50 ([3]; read-out: HBsAg IC50 (μM) Median, PHH, patient-derived HBV GT D, MOI 40 (Table 6)): 0.44 µM
- IC50 ([3]; read-out: HBsAg IC50 (μM) Median, PHH, patient-derived HBV GT D, MOI 125): 0.8 µM
- IC50 ([3]; read-out: HBsAg IC50s, PHH, patient-derived HBV GT A-D, range stated in text for HBsAg & HBeAg): 0.24 to 0.45 µM
- IC50 ([4]; Hepatitis B virus, 240 h, patient-derived HBV GT A, MOI 40, day 10 pi, read-out: cccDNA IC50 (μM) Median): 7.15 µM
- IC50 ([4]; Hepatitis B virus, 240 h, patient-derived HBV GT B, MOI 40, day 10 pi, read-out: cccDNA IC50 (μM) Median): 6.56 µM
- IC50 ([4]; Hepatitis B virus, 240 h, patient-derived HBV GT C, MOI 40, day 10 pi, read-out: cccDNA IC50 (μM) Median): 6.2 µM
- IC50 ([4]; Hepatitis B virus, 240 h, patient-derived HBV GT D, MOI 40, day 10 pi (Table 5), read-out: cccDNA IC50 (μM) Median): 6.69 µM
- IC50 ([4]; Hepatitis B virus, HepG2.2.15-derived HBV GT D, MOI 40, read-out: cccDNA IC50 (μM) Median): 25 µM
- IC50 ([4]; Hepatitis B virus, HepG2.2.15-derived HBV GT D, MOI 125, read-out: cccDNA IC50 (μM) Median): 25.2 µM
- IC50 ([4]; Hepatitis B virus, patient-derived HBV (GT D), read-out: cccDNA IC50 (μM) Median): < 10 µM
- IC50 ([4]; Hepatitis B virus, patient-derived HBV GT A-D, read-out: cccDNA IC50s): 6.2 to 7.15 µM
- IC50 ([4]; Hepatitis B virus, patient-derived HBV GT D, MOI 40 (Table 6), read-out: cccDNA IC50 (μM) Median): 6.41 µM
- IC50 ([4]; Hepatitis B virus, patient-derived HBV GT D, MOI 125, read-out: cccDNA IC50 (μM) Median): 6.78 µM
- IC50 ([4]; patient-derived HBV (GT D), read-out: cccDNA IC50 (μM) Median): 6.76 µM
